Reference: PubChem BioAssay (NCI)
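Compound exposure: 48 hours, 5 concentrations, 96-well plates. GI50: concentration for 50% inhibition of growth. Definition used: TGI = concentration required for complete inhibition of growth.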

Assays:
Experiment in all cases: inhibition of tumour cell growth, NCI panel, 48 h
UO-31 renal = system: UO-31 renal
SF-268 CNS = system: SF-268 CNS
DU-145 prostate = system: DU-145 prostate
HT29 colon = system: HT29 colon
HOP-62 NSCLC = system: HOP-62 NSCLC
COLO 205 colon = system: COLO 205 colon
A549 NSCLC = system: A549 NSCLC
M14 melanoma = system: M14 melanoma
HOP-92 NSCLC = system: HOP-92 NSCLC
SR leukemia = system: SR leukemia

What does the source list for `CCCCSc1nc(N)c2cn[nH]c2n1`?
GI50 (UO-31 renal): 26.2 µM; TGI (UO-31 renal): > 80.4 µM; GI50 (SF-268 CNS): 22.2 µM; TGI (SF-268 CNS): > 59.4 µM; GI50 (DU-145 prostate): 23.9 µM; TGI (DU-145 prostate): 72 µM; GI50 (HT29 colon): 25.5 µM; TGI (HT29 colon): 62.6 µM; GI50 (HOP-62 NSCLC): 22.5 µM; TGI (HOP-62 NSCLC): 48.8 µM; GI50 (COLO 205 colon): 19.8 µM; TGI (COLO 205 colon): 48.8 µM; GI50 (A549 NSCLC): 27.6 µM; TGI (A549 NSCLC): > 73.6 µM; GI50 (M14 melanoma): 13.3 µM; TGI (M14 melanoma): 29.5 µM; TGI (HOP-92 NSCLC): 2.39 µM; GI50 (SR leukemia): 14.1 µM; TGI (SR leukemia): 36.4 µM

How did the GI50 (UO-31 renal) turn out when `OC(CN1CCCC2CCCCC21)c1cc2ccccc2c2ccccc12` (centres undefined) was run?
Its GI50 is 1.44 µM.

And the TGI (UO-31 renal)?
Its TGI is 7.41 µM.

And the GI50 (SF-268 CNS)?
The GI50 was 3.64 µM.

And the TGI (SF-268 CNS)?
Its TGI is 13.7 µM.

What about the GI50 (DU-145 prostate) of the same molecule?
The GI50 was 3.73 µM.

And the TGI (DU-145 prostate)?
Its TGI is 14 µM.

What about the GI50 (HT29 colon) of the same molecule?
Its GI50 is 1.32 µM.

What about the TGI (HT29 colon) of the same molecule?
Its TGI is 3.07 µM.

And the GI50 (HOP-62 NSCLC)?
Its GI50 is 1.84 µM.

And the TGI (HOP-62 NSCLC)?
Its TGI is 3.91 µM.

And the GI50 (COLO 205 colon)?
Its GI50 is 1.45 µM.

What about the TGI (COLO 205 colon) of the same molecule?
The TGI was 2.9 µM.

What about the GI50 (A549 NSCLC) of the same molecule?
The GI50 was 4.65 µM.

And the TGI (A549 NSCLC)?
The TGI was 19.1 µM.

And the GI50 (M14 melanoma)?
Its GI50 is 1.52 µM.

What about the TGI (M14 melanoma) of the same molecule?
The TGI was 2.86 µM.

And the GI50 (HOP-92 NSCLC)?
The GI50 was 1.24 µM.

And the TGI (HOP-92 NSCLC)?
Its TGI is 3.42 µM.

What about the GI50 (SR leukemia) of the same molecule?
The GI50 was 1.6 µM.

And the TGI (SR leukemia)?
The TGI was 3.43 µM.

What does the source list for `CNCC(=O)NC(CO)C(=O)NC(CO)C(=O)NC1C(C(N)=O)OC(n2ccc(N)nc2=O)C(O)C1O` (centres undefined)?
GI50 (UO-31 renal): 12.4 µg/mL; TGI (UO-31 renal): > 50 µg/mL; GI50 (SF-268 CNS): 1.95 µg/mL; TGI (SF-268 CNS): 15.6 µg/mL; GI50 (DU-145 prostate): 13 µg/mL; TGI (DU-145 prostate): > 50 µg/mL; GI50 (HT29 colon): 25.9 µg/mL; TGI (HT29 colon): > 50 µg/mL; GI50 (HOP-62 NSCLC): 6.44 µg/mL; TGI (HOP-62 NSCLC): 32.3 µg/mL; GI50 (COLO 205 colon): > 50 µg/mL; TGI (COLO 205 colon): > 50 µg/mL; GI50 (A549 NSCLC): 17 µg/mL; TGI (A549 NSCLC): > 50 µg/mL; GI50 (M14 melanoma): 9.22 µg/mL; TGI (M14 melanoma): 35.3 µg/mL; GI50 (HOP-92 NSCLC): 4.83 µg/mL; TGI (HOP-92 NSCLC): > 50 µg/mL; GI50 (SR leukemia): 16.8 µg/mL; TGI (SR leukemia): > 50 µg/mL

Which results are given for `CSc1ccc(NC(=O)Nc2cc(C)ccn2)cc1`?
TGI (UO-31 renal): > 100 µM; TGI (SF-268 CNS): > 100 µM; TGI (DU-145 prostate): > 100 µM; TGI (HT29 colon): > 100 µM; TGI (HOP-62 NSCLC): > 100 µM; TGI (COLO 205 colon): > 100 µM; TGI (A549 NSCLC): > 100 µM; TGI (M14 melanoma): > 100 µM; TGI (HOP-92 NSCLC): > 100 µM; TGI (SR leukemia): > 100 µM

`O=C(N=Nc1c(Cl)c(O)c2ccccc2c1O)C(=O)Nc1cccc(C(F)(F)F)c1` was tested. Which GI50 (UO-31 renal) did it give?
The GI50 was 1.53 µM.

What about the TGI (UO-31 renal) of the same molecule?
The TGI was 12.2 µM.

And the GI50 (SF-268 CNS)?
The GI50 was 3.37 µM.

And the TGI (SF-268 CNS)?
Its TGI is 13 µM.

What about the GI50 (DU-145 prostate) of the same molecule?
Its GI50 is 2.73 µM.

And the TGI (DU-145 prostate)?
The TGI was 5.15 µM.

And the GI50 (HT29 colon)?
Its GI50 is 6.44 µM.

What about the TGI (HT29 colon) of the same molecule?
The TGI was 28 µM.

And the GI50 (HOP-62 NSCLC)?
Its GI50 is 11.5 µM.

And the TGI (HOP-62 NSCLC)?
Its TGI is 24.7 µM.

And the GI50 (COLO 205 colon)?
Its GI50 is 10.9 µM.

What about the TGI (COLO 205 colon) of the same molecule?
Its TGI is 24.6 µM.

And the GI50 (A549 NSCLC)?
Its GI50 is 3.79 µM.

What about the TGI (A549 NSCLC) of the same molecule?
The TGI was 16.7 µM.

And the GI50 (M14 melanoma)?
Its GI50 is 1.96 µM.

And the TGI (M14 melanoma)?
Its TGI is 4.1 µM.

And the GI50 (HOP-92 NSCLC)?
The GI50 was 1.98 µM.

What about the TGI (HOP-92 NSCLC) of the same molecule?
The TGI was 15.6 µM.

And the GI50 (SR leukemia)?
The GI50 was 3.08 µM.

What about the TGI (SR leukemia) of the same molecule?
Its TGI is 17.1 µM.

What does the source list for `CC1=NN(c2cccc(Cl)c2)C(=O)/C1=C\C=C\c1ccccc1`?
GI50 (UO-31 renal): 1.62 µM; TGI (UO-31 renal): 3.49 µM; GI50 (SF-268 CNS): 2.36 µM; TGI (SF-268 CNS): 6.91 µM; GI50 (DU-145 prostate): 2.91 µM; TGI (DU-145 prostate): 12.1 µM; GI50 (HT29 colon): 2.98 µM; TGI (HT29 colon): 7.4 µM; GI50 (HOP-62 NSCLC): 3.18 µM; TGI (HOP-62 NSCLC): 11.1 µM; GI50 (COLO 205 colon): 2.36 µM; TGI (COLO 205 colon): 4.94 µM; GI50 (A549 NSCLC): 16.4 µM; TGI (A549 NSCLC): > 100 µM; GI50 (M14 melanoma): 1.7 µM; TGI (M14 melanoma): 3.57 µM; GI50 (HOP-92 NSCLC): 4.63 µM; TGI (HOP-92 NSCLC): 43 µM; GI50 (SR leukemia): 2.36 µM; TGI (SR leukemia): > 100 µM

With `C(=C\c1ccncc1)/c1ccncc1` as the molecule, how does the GI50 (UO-31 renal) read?
The GI50 was 50.5 µM.

And the TGI (UO-31 renal)?
The TGI was greater than 100 µM.

What about the GI50 (SF-268 CNS) of the same molecule?
The GI50 was greater than 100 µM.

And the TGI (SF-268 CNS)?
The TGI was greater than 100 µM.

And the GI50 (DU-145 prostate)?
Its GI50 is greater than 100 µM.

And the TGI (DU-145 prostate)?
Its TGI is greater than 100 µM.

And the GI50 (HT29 colon)?
The GI50 was greater than 100 µM.

What about the TGI (HT29 colon) of the same molecule?
Its TGI is greater than 100 µM.

And the GI50 (HOP-62 NSCLC)?
The GI50 was greater than 100 µM.

What about the TGI (HOP-62 NSCLC) of the same molecule?
The TGI was greater than 100 µM.

What about the GI50 (COLO 205 colon) of the same molecule?
Its GI50 is greater than 100 µM.

And the TGI (COLO 205 colon)?
Its TGI is greater than 100 µM.

And the GI50 (A549 NSCLC)?
The GI50 was greater than 100 µM.

And the TGI (A549 NSCLC)?
The TGI was greater than 100 µM.

And the GI50 (M14 melanoma)?
The GI50 was greater than 100 µM.

And the TGI (M14 melanoma)?
Its TGI is greater than 100 µM.

What about the GI50 (HOP-92 NSCLC) of the same molecule?
The GI50 was 74.9 µM.

What about the TGI (HOP-92 NSCLC) of the same molecule?
The TGI was greater than 100 µM.

What about the GI50 (SR leukemia) of the same molecule?
The GI50 was greater than 100 µM.

And the TGI (SR leukemia)?
Its TGI is greater than 100 µM.
